In patent US6221865A, “Inhibitors of protein isoprenyl transferases” (priority 1998, dated 2001):
Structures can show the parent of a compound that is named as a salt.

Molecular target: T1, protein farnesyltransferase (Rattus norvegicus, UniProt Q02293+Q04631)
T1 construct: The enzyme is purified according to Reiss, Y., et al., Cell, 62: 81-88 (1990), utilizing steps one through three; from tissue; host or cells: rat brain
Assay: Inhibition of farnesyltransferase (scintillation proximity assay, rat brain enzyme, biotin-K Ras B fragment substrate)
Assay type: biochemical
Conditions: for % inhibition of farnesyltransferase at 1 × 10^-7 M: 1 × 10^-7 M (Table 3); for % inhibition of farnesyltransferase at 1 × 10^-5 M: 1 × 10^-5 M (Table 1); for inhibition at 1 µM: read-out: % inhibition of farnesyltransferase at 1 × 10^-6 M; for inhibition at 1 µM / % inhibition of farnesyltransferase at 1 × 10^-6 M: 1 × 10^-6 M (Table 2); for % inhibition of farnesyltransferase at 1 × 10^-8 M: 1 × 10^-8 M (Table 4)
Text: The ability of the compounds of the invention to inhibit protein farnesyltransferase or protein geranylgeranyltransferase can be measured according to the method of Moores, et al., J. Biol. Chem. 266: 14603 (1991) or the method of Vogt, et al., J. Biol. Chem. 270:660-664 (1995). In addition, procedures for determination of the inhibition of farnesylation of the oncogene protein Ras are described by Goldstein, et al., J. Biol. Chem., 266:15575-15578 (1991) and by Singh in U.S. Pat. No. 5,245,061.
In addition, in vitro inhibition of protein farnesyltransferase may be measured by the following procedure. Rat brain protein farnesyltransferase activity is measured using an Amersham Life Science commercial scintillation proximity assay kit and substituting a biotin-K Ras B fragment (biotin-[…]Ble-Met-CO2 H), […] final concentration, for the biotin-lamin substrate provided by Amersham. The enzyme is purified according to Reiss, Y., et al., Cell, 62: 81-88 (1990), utilizing steps one through three.
The % inhibition of protein farnesyltransferase was determined for representative compounds of the invention.

T1 sequence (Q02293 whole entry, one chain of several): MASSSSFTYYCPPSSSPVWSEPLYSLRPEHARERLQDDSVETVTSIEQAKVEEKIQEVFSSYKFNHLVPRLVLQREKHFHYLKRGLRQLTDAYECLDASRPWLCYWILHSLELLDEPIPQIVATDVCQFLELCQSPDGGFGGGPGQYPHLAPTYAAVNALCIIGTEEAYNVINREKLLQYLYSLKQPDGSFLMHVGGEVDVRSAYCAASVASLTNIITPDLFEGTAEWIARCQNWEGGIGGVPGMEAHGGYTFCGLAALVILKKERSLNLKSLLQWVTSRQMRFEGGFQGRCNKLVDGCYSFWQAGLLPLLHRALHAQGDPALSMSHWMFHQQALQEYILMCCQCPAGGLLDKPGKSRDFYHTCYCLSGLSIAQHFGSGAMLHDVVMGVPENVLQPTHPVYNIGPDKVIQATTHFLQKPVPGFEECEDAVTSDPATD

Q: `CSCC[C@H](NC(=O)c1ccc(CNc2ccc(Oc3ccccc3)cc2)cc1-c1ccccc1C)C(=O)O` [Example 864] was tested. Which “% inhibition of farnesyltransferase at 1 × 10^-7 M” value (“% inhibition … at 1 × 10^-7 M” below) did it give?
A: 84%

Q: How did the “% inhibition of farnesyltransferase at 1 × 10^-5 M” value turn out when `CSCC[C@H](NC(=O)c1ccc(CNc2cccc(O)c2)cc1-c1ccccc1)C(=O)O` [Example 676] was run?
A: 76%

Q: `CSCC[C@H](NC(=O)c1ccc(COCc2ccc(-c3ccc(Cl)cc3)o2)cc1-c1ccccc1C)C(=O)NS(C)(=O)=O` [Example 818] was tested. Which “% inhibition … at 1 × 10^-7 M” value did it give?
A: 78%

Q: For `CSCC[C@H](NC(=O)c1ccc(S(=O)(=O)NCCN2CCCCC2)cc1-c1ccccc1C)C(=O)O` [Example 774, lithium salt], which inhibition at 1 µM is on record?
A: 48%

Q: For `CSCC[C@H](NC(=O)c1ccc(CNc2ccc(C(=O)c3ccccc3)cc2)cc1-c1ccccc1)C(=O)O` [Example 702], which “% inhibition of farnesyltransferase at 1 × 10^-5 M” value is on record?
A: 79%

Q: With `CSCC[C@H](NC(=O)c1ccc(-c2ccc(-c3ccccc3)cc2)cc1-c1ccccc1C)C(=O)O` [Example 788, N-[4-(4-phenylphenyl)-2-(2-methylphenyl)benzoyl]methionine lithium salt] as the compound, how does the inhibition at 1 µM read?
A: 44%

Q: `CSCC[C@H](NC(=O)c1ccc(OCCOc2ccccc2)cc1-c1ccccc1C)C(=O)O` [Example 561] was tested. Which “% inhibition of farnesyltransferase at 1 × 10^-6 M” value (“% inhibition … at 1 × 10^-6 M” for short) did it give?
A: 91%

Q: Which “% inhibition … at 1 × 10^-7 M” value does the source give for `CSCC[C@H](NC(=O)c1ccc(COCc2ccc(Cl)cc2)cc1-c1ccccc1C)C(=O)[O-].[Li+]` [Example 933] here?
A: 91%

Q: How did the “% inhibition … at 1 × 10^-6 M” value turn out when `CSCC[C@H](NC(=O)c1ccc(CN(CC(c2ccccc2)c2ccccc2)c2ccccc2)cc1-c1ccccc1C)C(=O)O` [Example 509] was run?
A: 77%

Q: Which “% inhibition of farnesyltransferase at 1 × 10^-8 M” value (“% inhibition … at 1 × 10^-8 M” below) does the source give for `CSCC[C@H](NC(=O)c1ccc(CN(C(C)=O)C(CC2CCCCC2)CC2CCCCC2)cc1-c1ccccc1C)C(=O)O` [Example 909] here?
A: 79%

Q: Which “% inhibition … at 1 × 10^-7 M” value does the source give for `CSCC[C@H](NC(=O)c1ccc(CN(c2ccccc2)S(=O)(=O)c2ccc(C)cc2)cc1-c1ccccc1C)C(=O)O` [Example 770] here?
A: 91%

Q: With `CSCC[C@H](NC(=O)c1ccc(Sc2ccc3ccccc3c2)cc1-c1ccccc1C)C(=O)O` [Example 497] as the compound, how does the “% inhibition … at 1 × 10^-6 M” value read?
A: 94%

Q: With `CSCC[C@H](NC(=O)c1ccc(CN(C)C(CC2CCCCC2)C(=O)N2CCCCC2)cc1-c1ccccc1C)C(=O)O` (stereo partly drawn) [Example 301] as the compound, how does the inhibition at 1 µM read?
A: 98%

Q: `CSCC[C@H](NC(=O)c1ccc(CN(CCC2CCCCC2)C(=O)N(C)C)cc1-c1ccccc1C)C(=O)O` [Example 610] was tested. Which “% inhibition … at 1 × 10^-6 M” value did it give?
A: 94%

Q: With `CSCC[C@H](NC(=O)c1ccc(COCc2ccc(-c3cccc([N+](=O)[O-])c3)o2)cc1-c1ccccc1C)C(=O)[O-].[Li+]` [Example 440] as the compound, how does the “% inhibition … at 1 × 10^-7 M” value read?
A: 92%

Q: For `CSCC[C@H](NC(=O)c1ccc(COCC(CC2CCCCC2)CC2CCCCC2)cc1-c1ccccc1C)C(=O)O` [Example 889], which “% inhibition … at 1 × 10^-6 M” value is on record?
A: 95%

Q: How did the “% inhibition … at 1 × 10^-6 M” value turn out when `CSCC[C@H](NC(=O)c1ccc(CN(C)CCc2ccccc2)cc1-c1ccccc1C)C(=O)O` [Example 516] was run?
A: 95%

Q: `CSCC[C@H](NC(=O)c1ccc(S(=O)(=O)NCCCn2ccnc2)cc1-c1ccccc1C)C(=O)O` [Example 777, lithium salt] was tested. Which inhibition at 1 µM did it give?
A: 83%

Q: With `CSCC[C@H](NC(=O)c1ccc(CN[C@H](/C=C\CC(C)C)CC2CCCCC2)cc1-c1ccccc1C)C(=O)O` [Example 526] as the compound, how does the “% inhibition … at 1 × 10^-7 M” value read?
A: 96%

Q: For `COc1ccc(CCNS(=O)(=O)c2ccc(C(=O)N[C@@H](CCSC)C(=O)O)c(-c3ccccc3C)c2)cc1OC` [Example 776], which inhibition at 1 µM is on record?
A: 36%

Q: Which inhibition at 1 µM does the source give for `CSCC[C@H](NC(=O)c1ccc(CN2CCNCC2)cc1-c1ccccc1)C(=O)O` [Example 290, (4-piperazinylmethyl-2-phenylbenzoyl)methionine] here?
A: 74%

Q: `CSCC[C@H](NC(=O)c1ccc(CSc2ccccc2C(C)C)cc1-c1ccccc1C)C(=O)O` [Example 739] was tested. Which “% inhibition … at 1 × 10^-7 M” value did it give?
A: 83%

Q: How did the inhibition at 1 µM turn out when `CSCC[C@H](NC(=O)c1ccc(/C=C/c2ccc3ccccc3c2)cc1-c1ccccc1C)C(=O)O` [Example 465, N-[4-(2-naphth-2-ylethenyl)-2-(2-methylphenyl)benzoyl]methionine] was run?
A: 92%

Q: How did the “% inhibition … at 1 × 10^-7 M” value turn out when `CSCC[C@H](NC(=O)c1ccc(NC(=O)CN)cc1-c1ccccc1)C(=O)O` [Example 748] was run?
A: 56%

Q: Which “% inhibition … at 1 × 10^-6 M” value does the source give for `CSCC[C@H](NC(=O)c1ccc(NCC(CO)Cc2ccccc2)cc1-c1ccccc1C)C(=O)O` (stereo partly drawn) [Example 476] here?
A: 91%

Q: Which inhibition at 1 µM does the source give for `Cc1ccccc1-c1cc(CN(C(C)C)C(C)(C)CC2CCCCC2)ccc1C(=O)N[C@@H](CCS(C)(=O)=O)C(=O)O` [Example 322] here?
A: 98%

Q: For `CSCC[C@H](NC(=O)c1ccc(CN[C@H](CO)CC2CCCCC2)cc1-c1ccccc1C)C(=O)O` [Example 617], which “% inhibition … at 1 × 10^-6 M” value is on record?
A: 99%

Q: How did the “% inhibition … at 1 × 10^-8 M” value turn out when `CCSC[C@H](CC1CCCCC1)N(C=O)Cc1ccc(C(=O)N[C@@H](CCSC)C(=O)O)c(-c2ccccc2C)c1` [Example 946] was run?
A: 52%

Q: How did the “% inhibition … at 1 × 10^-6 M” value turn out when `CSCC[C@H](NC(=O)c1ccc(CN(C)C(C)(C)Cc2ccccc2)cc1-c1ccccc1C)C(=O)O` [Example 982] was run?
A: 64%

Q: With `CSCC[C@H](NC(=O)c1ccc(COCc2ccc(-c3ccc(C=O)cc3)o2)cc1-c1ccccc1C)C(=O)[O-].[Li+]` [Example 448] as the compound, how does the “% inhibition … at 1 × 10^-7 M” value read?
A: 92%

Q: `CSCC[C@H](NC(=O)c1ccc(Cc2nnn(Cc3ccccc3)n2)cc1-c1ccccc1C)C(=O)O` [Example 1101, N-[4-(2-benzyltetrazol-5-ylmethyl)-2-(2-methylphenyl)benzoyl]methionine] was tested. Which inhibition at 0.1 µM (read-out: % inhibition at 0.1 μM (*), Table 6, * = 0.1 μM (footnote), title prints 0.1 mM) did it give?
A: 86%

Q: `CSCC[C@H](NC(=O)c1ccc(COCc2ccccc2)cc1-c1ccccc1C)C(=O)[O-].[Li+]` [Example 571] was tested. Which “% inhibition … at 1 × 10^-7 M” value did it give?
A: 88%

Q: `CSCC[C@H](NC(=O)c1ccc(COCc2ccc(C(C)C)cc2)cc1-c1ccccc1C)C(=O)[O-].[Li+]` [Example 940] was tested. Which “% inhibition … at 1 × 10^-7 M” value did it give?
A: 92%

Q: `CSCC[C@H](NC(=O)c1ccc(CNC(C)(C)CC2CCCCC2)cc1-c1ccccc1C)C(=O)O` [Example 308] was tested. Which inhibition at 1 µM did it give?
A: 62%

Q: `CSCC[C@H](NC(=O)c1ccc(COCc2cnc(-c3ccc(Cl)cc3)s2)cc1-c1ccccc1C)C(=O)[O-].[Li+]` [Example 901] was tested. Which “% inhibition … at 1 × 10^-8 M” value did it give?
A: 84%

Q: `CSCC[C@H](NC(=O)c1ccc(-c2ccccc2-c2ccccc2)cc1-c1ccccc1C)C(=O)O` [Example 786, N-[4-(2-phenylphenyl)-2-(2-methylphenyl)benzoyl]methionine lithium salt] was tested. Which inhibition at 1 µM did it give?
A: 34%

Q: For `CSCC[C@H](NC(=O)c1ccc(CNc2ccccc2F)cc1-c1ccccc1)C(=O)O` [Example 642], which “% inhibition … at 1 × 10^-6 M” value is on record?
A: 48%

Q: For `CSCC[C@H](NC(=O)c1ccc(C=Cc2ccccc2Cc2ccccc2)cc1-c1ccccc1C)C(=O)O` [Example 457, N-[4-(2-(2-benzylphenyl)ethenyl)-2-(2-methylphenyl)benzoyl]methionine lithium salt], which inhibition at 1 µM is on record?
A: 92%

Q: For `CSCC[C@H](NC(=O)c1ccc(C[C@H]2CC[C@@H](c3ccccc3)CC2)cc1-c1ccccc1C)C(=O)O` [Example 790, N-[4-syn-(4-phenylcyclohexylmethyl)-2-(2-methylphenyl)benzoyl]methionine lithium salt], which inhibition at 1 µM is on record?
A: 88%

Q: Which “% inhibition … at 1 × 10^-8 M” value does the source give for `CSCC[C@H](NC(=O)c1ccc(CN(Cc2cncs2)C2CCSCC2)cc1-c1ccccc1C)C(=O)O` [Example 881] here?
A: 69%

Q: For `CSCC[C@H](NC(=O)c1ccc(CNC(CC2CCCCC2)CC2CCCCC2)cc1-c1ccccc1C)C(=O)O` [Example 524], which “% inhibition … at 1 × 10^-7 M” value is on record?
A: 99%

Q: How did the “% inhibition … at 1 × 10^-7 M” value turn out when `CSCC[C@H](NC(=O)c1ccc(COCc2ccc(-c3ccc(C(F)(F)F)cc3)o2)cc1-c1ccccc1C)C(=O)[O-].[Li+]` [Example 445] was run?
A: 94%

Q: `CSCC[C@H](NC(=O)c1ccc(/C=C/c2ccccc2)cc1-c1ccccc1C)C(=O)O` [Example 791, N-[4-(2-phenylethen-1-yl)-2-(2-methylphenyl)benzoyl]methionine] was tested. Which inhibition at 1 µM did it give?
A: 53%

Q: With `CCCCS(=O)(=O)N(Cc1ccc(C(=O)N[C@@H](CCSC)C(=O)O)c(-c2ccccc2C)c1)[C@H](CSCC)CC1CCCCC1` [Example 950] as the compound, how does the “% inhibition … at 1 × 10^-7 M” value read?
A: 71%

Q: `CCSC[C@H](CC1CCCCC1)NCc1ccc(C(=O)N(C)[C@@H](CCSC)C(=O)O)c(-c2ccccc2C)c1` [Example 765] was tested. Which “% inhibition … at 1 × 10^-6 M” value did it give?
A: 76%
